From patent US8158587B2, “Compound having histone deacetylase-inhibiting activity, and pharmaceutical composition comprising the compound as an active ingredient” (Kyushu Institute of Technology, priority 2006, dated 2012) come the findings set out here.

In test [1] the test system is human wild type p21 promoter. In words: p21 promoter assay (luciferase) in MFLL-9 cells. Type of test: cell-based. The conditions noted are these: 20 hours, concentration giving 1000% luminescence relative to negative control (100%). How it is done: As an HDAC-inhibiting activity in an […] system, the following measurement was carried out using the p21 promoter inducing activity as an index. MFLL-9 cells used in the experiment are cells stably retaining a fusion gene (Dr. B. Vogelstaein) from the human wild type p21 promoter and luciferase gene. They were cultured using phenol red-free DMEM supplemented with 10% FBS in a steam-saturated incubator at 37° C. in the presence of 5% carbon dioxide. These MFLL-9 cells were sowed onto a 96-well microplate at a cell density of 2×10^4 cells/well and, after 24 hours of cultivation in 99 μl, per well, of the medium mentioned above, each test compound solution was added, followed by 20 hours of incubation. […] In a negative control, the same procedure was carried out without adding any inhibitor to the reaction system.
Using Luciferase Assay Reagent (Promega), the intensity of the luminescence due to the product of the enzymatic reaction involving luciferase expressed within cells was measured.

For another test, the target named is T1, human HDAC4 (Homo sapiens, UniProt P56524).
T1 construct: made in house; host or cells: 293T cells (transient transfection, anti-FLAG immunoprecipitation, FLAG peptide elution)
Description: HDAC-inhibiting activity, coumarin-labeled acetylated histone peptide assay. Type of test: biochemical. As to conditions: human HDAC4 from transfected 293T cells; 37° C., 30 minutes; read-out: HDAC-inhibiting activity IC50 HDAC4. How it is done:
In carrying out HDAC-inhibiting activity measurements, HDAC solutions were prepared in the following manner. […] The human HDAC1 expression vector used was pcDNA3-HD1 (Yang, W. M., Yao, Y. L., Sun, […]. & Seto, E. (1997) J. Biol. Chem. 272, 28001-28007), the human HDAC4 expression vector used was pcDNA3-HD4 ([…]., Nagase, […]. Biol. Chem. 274, 11713-11720), and the murine HDAC6 expression vector used was pcDNA3-mHDA2/HDAC6 ([…]. Biol. Chem. 274, 2440-2445). After 24 hours of incubation, cells were recovered, washed with PBS, suspended in lysis buffer (50 mM Tris-HCl (pH 7.5), 120 mM NaCl, 5 mM EDTA, 0.5% Nonidet P-40), and sonicated. The supernatant was collected by centrifugation and then deprived of nonspecific proteins using Protein A/G plus agarose beads (Santa Cruz Biotechnologies, Inc.). Thereafter, anti-FLAG M2 antibody (Sigma-Aldrich Inc.) was added, and the reaction was allowed to proceed at 4° C. for 2 hours. To this were added agarose beads, the reaction was allowed to proceed at 4° C. for 3 hours, and the agarose beads were washed three times with lysis buffer and then once with HD buffer (20 mM Tris-HCl (pH 8.0), 150 mM NaCl, 10% glycerol). […] HDAC-inhibiting activity evaluation in each in vitro system was made as follows. Each test compound was dissolved in DMSO, a stock solution with a concentration of 10 mM was thus prepared and this was used as an inhibitor stock solution. The assay was carried out by incubating the HDAC solution and a coumarin-labeled acetylated histone peptide solution in the presence of the test compound at 37° C. for 30 minutes (reaction volume 20 μl). To the reaction mixture was added 30 μl of trypsin, and the aminomethylcoumarin released by the enzymatic reaction was assayed using a fluorescent plate reader. In a negative control assay, no inhibitor was added to the reaction system and the same procedure was carried out.

The test system of test [2] is melanoma cell line LOX-IMVI. In words: Human cancer cell line panel, proliferation (sulforhodamine B). In kind it is cell-based. As to conditions: 2 days of cultivation, read-out: 50% inhibitory concentration, proliferation. The text has this:
(§1) The characteristics of the human cancer cell proliferation-inhibiting activity of the compounds of the present invention were examined by the “method of evaluating the mechanisms of action of compounds using a panel of human cancer cell lines” as proposed by Yamori et al. (cf. Gan to Kagaku Ryoho (Cancer and Chemotherapy) 29 Suppl. II (2002) and Cancer Chemother. Pharmacol. 52 Suppl. I, S74-79 (2003)).
(§2) This system includes […] (7 lung cancer, 6 stomach cancer, 5 colon cancer, 5 ovarian cancer, 6 brain tumor, […], 2 kidney cancer and 2 prostate cancer cell lines as well as one melanoma line) and the method comprises measuring the in vitro drug susceptibilities of those cancer cell lines and expressing the differences in drug susceptibility among the respective cancer cell lines as a fingerprint. […] By utilizing this property, it is possible to estimate the mechanisms of action of a compound. The above method is also characterized in that an anticancer substance showing new and unique mechanisms of action different from those of the existing anticancer agents can be selected.
(§3) Cancer cells of each cell line are sowed onto a 96-well plate, a sample solution is added on the next day and, after 2 days of cultivation, the cell proliferation is measured by colorimetry using sulforhodamine B. The deviations in effective concentration for the respective cancer cell lines from the mean effective drug concentration for the 39 cancer cell lines subjected to measurement are calculated and shown in the form a fingerprint.

Test [3] relates to lung cancer cell line NCI-H522. Described as above. Type of test: cell-based. As to conditions: NCI-H522, 2 days of cultivation; read-out: 50% inhibitory concentration, proliferation.
Excerpt: as §1, §2, §3

Each structure is given as a SMILES string.

T1 sequence (P56524 whole entry): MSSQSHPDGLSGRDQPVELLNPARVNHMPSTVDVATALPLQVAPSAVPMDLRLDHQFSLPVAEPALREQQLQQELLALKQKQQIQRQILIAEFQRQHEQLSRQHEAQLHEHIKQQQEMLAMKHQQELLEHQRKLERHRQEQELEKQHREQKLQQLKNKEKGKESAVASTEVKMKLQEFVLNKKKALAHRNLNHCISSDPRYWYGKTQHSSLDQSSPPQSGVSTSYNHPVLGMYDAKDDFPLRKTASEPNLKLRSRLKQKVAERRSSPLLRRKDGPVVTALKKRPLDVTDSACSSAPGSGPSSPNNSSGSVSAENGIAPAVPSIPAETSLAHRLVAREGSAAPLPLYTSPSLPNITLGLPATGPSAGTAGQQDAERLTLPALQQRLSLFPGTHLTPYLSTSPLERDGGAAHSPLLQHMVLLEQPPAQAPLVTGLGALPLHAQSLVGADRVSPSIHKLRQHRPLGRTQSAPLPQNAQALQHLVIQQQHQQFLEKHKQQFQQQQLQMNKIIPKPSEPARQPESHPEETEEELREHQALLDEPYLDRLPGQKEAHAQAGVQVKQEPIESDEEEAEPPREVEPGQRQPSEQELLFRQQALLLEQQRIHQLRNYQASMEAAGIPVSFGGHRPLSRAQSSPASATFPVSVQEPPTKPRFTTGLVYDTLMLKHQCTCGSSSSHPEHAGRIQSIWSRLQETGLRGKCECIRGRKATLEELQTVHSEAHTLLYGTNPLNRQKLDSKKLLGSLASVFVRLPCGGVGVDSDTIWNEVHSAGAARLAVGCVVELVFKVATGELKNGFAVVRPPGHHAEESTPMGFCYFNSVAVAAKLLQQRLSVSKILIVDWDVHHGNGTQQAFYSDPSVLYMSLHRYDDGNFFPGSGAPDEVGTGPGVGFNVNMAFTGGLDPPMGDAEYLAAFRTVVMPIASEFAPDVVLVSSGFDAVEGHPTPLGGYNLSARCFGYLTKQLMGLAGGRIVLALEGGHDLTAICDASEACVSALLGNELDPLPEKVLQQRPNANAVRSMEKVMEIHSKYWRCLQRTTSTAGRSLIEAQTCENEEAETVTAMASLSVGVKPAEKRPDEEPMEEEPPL
T1 sequence (O15379 whole entry, further chain): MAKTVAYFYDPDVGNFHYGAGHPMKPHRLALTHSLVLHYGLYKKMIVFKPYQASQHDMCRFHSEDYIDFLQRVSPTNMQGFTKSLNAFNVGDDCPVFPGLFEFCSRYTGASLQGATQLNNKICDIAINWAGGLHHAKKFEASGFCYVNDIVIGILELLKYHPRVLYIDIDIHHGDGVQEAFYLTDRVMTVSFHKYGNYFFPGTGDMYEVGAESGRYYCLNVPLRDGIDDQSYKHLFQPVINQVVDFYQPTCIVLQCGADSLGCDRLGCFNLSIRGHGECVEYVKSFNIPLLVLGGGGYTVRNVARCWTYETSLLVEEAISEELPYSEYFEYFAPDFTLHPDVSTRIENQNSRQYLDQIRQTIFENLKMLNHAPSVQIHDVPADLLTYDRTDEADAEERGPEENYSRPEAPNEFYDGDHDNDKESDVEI

Regarding `COCC(=O)CCCCC[C@@H]1NC(=O)[C@H]2CCCN2C(=O)[C@H](Cc2ccccc2)NC(=O)C(C)(C)NC1=O` [Ky-9, cyclo(-L-Ae9(Mmk)-Aib-L-Phe-D-Pro-)], the “p21 promoter activity EC1000” value in test [1] turned out to be 0.043 µM. Also, the IC50 is 28 nM at human HDAC4, ≤ 100 nM in test [2] and ≤ 100 nM in test [3].
